Where two headings read alike, the source gives them in different places.
Key:
[1] = tested on: Bacillus cereus (B. cereus); assay: In vitro antibacterial activity, progressive double dilutions, culture turbidity; format: cell-based
Text: (§1) The growth of bacteria was estimated by measuring the turbidity of the culture, as previously reported. […] The pH of the media was adjusted to 7.0.

[2] = tested on: Bacillus subtilis (B. subtilis); assay: as above; format: cell-based
Text: as §1

[3] = tested on: Escherichia coli (E. coli); assay: as above; format: cell-based
Text: as §1

[4] = tested on: Staphylococcus aureus (S. aureus); assay: as above; format: cell-based
Text: as §1

[5] = tested on: MRC5 human normal lung cells; assay: MTT cytostatic/cytotoxic assay; format: cell-based; details: MRC5, 48 h treatment
Experimental: (§2) The cell lines were obtained from the American Type of Culture collection (ATCC), except HuP-T3 which was kindly donated from University of Crete, School of Medicine, Greece, and were grown in different culture medium according to the instructions.
(§3) For the determination of the cell viability, it was employed the MTT assay. Cells were plated in 96-well plate at a density of 1 × 10^4 cells/mL per well and maintained for 72 h at 37 °C in a 5% CO2 incubator and grown as monolayers. […] The viability of cultured cells was estimated by a (3-(4,5-imethylthiazol-2-yl)-2,5-diphenyltetrazolium bromide (MTT) metabolic assay as previously described.
(§4) In brief, MTT (Sigma, St Louis, Missouri, USA) was dissolved in PBS in a concentration of 5 mg/mL, filter sterilized, and stored at 4 °C. Then, 50 μL of stock solution was added to each culture and incubated for 3 h at 37 °C. Formazan crystals were solubilized by DMSO (100 μL). Absorbance of the converted dye was measured at a wavelength of 540 nm on ELISA reader (VersaMax Microplate Reader Orleans, USA). […] Using seven absorbance measurements [time 24 h (Ct24), control growth 72 h (Ct72), and test growth in the presence of drug at five concentration levels (Tt72x)], the percentage of growth was calculated at each level of the drug concentrations. The percentage growth inhibition was calculated according to National Cancer Institute (NCI) as: {[(Tt72x) − (Ct24)]/[(Ct72) − (Ct24)]} × 100 for concentrations for which Tt72x>Ct24 and {(Tt72x) − (Ct24)]/(Ct24)} × 100 for concentrations for which Tt72x<Ct24. […] All experiments were carried out in triplicate. A significant difference was presumed to exist when p ≤ 0.05 (two tailed paired t test).

[6] = tested on: Hup-T3 pancreatic adenocarcinoma cells; assay: MTT cytostatic/cytotoxic assay; format: cell-based, human; details: Hup-T3, 48 h treatment
Experimental: as §2, §3, §4

[7] = tested on: PC3 prostate adenocarcinoma cells; assay: MTT cytostatic/cytotoxic assay; format: cell-based, human; details: PC3, 48 h treatment
Experimental: as §2, §3, §4

[8] = Reduction of hydrogen peroxide; details: compound 0.1 mM, 20 min, phosphate buffer pH 7.4
Experimental: In vitro antioxidant activity studies for 1–4 and their free ligands were performed in order to determine their ability to scavenge DPPH, and ABTS free radicals and to reduce H2O2 and was compared with the antioxidant capacity of reference compounds (NDGA, BHT, trolox and ascorbic acid).
The absorbance was measured at 230 nm after 20 min. The antioxidant activity of the compounds was expressed as percent reduction of H2O2 (%H2O2). Ascorbic acid (or vitamin C) was used as an appropriate standard.

calf-thymus (CT) DNA = assay: DNA viscosity measurements; format: binding
Experimental: All measurements were performed at room temperature. The obtained data are presented as (η/η0)^1/3 versus r where η is the viscosity of DNA in the presence of the studied compound, η0 is the viscosity of DNA alone in buffer solution and r = [complex]/[DNA]. DNA-length (L/L0), according to the equation L/L0 = (η/η0)^1/3. […] In the particular case of intercalation, an increase in the separation distance of the DNA-base pairs can be induced in order to host the inserting compound resulting in an increase of the relative DNA-viscosity. On the other hand, when a compound binds to DNA-grooves via non-classic intercalation (i.e., electrostatic interaction or external groove-binding) the DNA-viscosity may show a slight decrease or remain unchanged, because of a bend of DNA double helix which leads to shortening of DNA length.

[9] = molecular target: T1, BSA (bovine serum albumin) (Bos taurus, UniProt P02769); assay: Serum albumin tryptophan fluorescence quenching; format: binding
T1 construct: purchased
Experimental: (§5) The serum albumin (SA) binding study was performed by tryptophan fluorescence quenching experiments using BSA (3 μM) or HSA (3 μM) in buffer (containing 1 mM trisodium citrate and 150 mM NaCl at pH 7.0).
(§6) The Stern-Volmer and Scatchard graphs are used in order to study the interaction of a quencher with serum albumins. According to Stern-Volmer quenching equation (Equation (2)), where Io = the initial tryptophan fluorescence intensity of SA, I = the tryptophan fluorescence intensity of SA after the addition of the quencher, kq = the quenching constant, KSV = the Stern-Volmer constant, τo = the average lifetime of SA without the quencher, [Q] = the concentration of the quencher. KSV (M^–1) can be obtained by the slope of the diagram Io/I versus [Q], and subsequently the quenching constant (kq, M^–1s^–1) is calculated from Equation (3) with τ0 = 10^–8 s as fluorescence lifetime of tryptophan in SA.
(§7) From the Scatchard equation (5) ΔΙ/Ιο/Q=nK−kΔΙ/Ιο where, n is the number of binding sites per albumin and K is the SA-binding constant, K (in M^–1) is calculated from the slope in plots ΔΙ/Ιο/Q versus ΔΙ/Ιο and n is given by the ratio of y intercept to the slope.

[10] = molecular target: T2, HSA (human serum albumin) (Homo sapiens, UniProt P02768); assay: Serum albumin tryptophan fluorescence quenching; format: binding
T2 construct: purchased
Experimental: as §5, §6, §7

[11] = value in parentheses, mean ± SD, read-out: IC50

T2 sequence (P02768 25-609): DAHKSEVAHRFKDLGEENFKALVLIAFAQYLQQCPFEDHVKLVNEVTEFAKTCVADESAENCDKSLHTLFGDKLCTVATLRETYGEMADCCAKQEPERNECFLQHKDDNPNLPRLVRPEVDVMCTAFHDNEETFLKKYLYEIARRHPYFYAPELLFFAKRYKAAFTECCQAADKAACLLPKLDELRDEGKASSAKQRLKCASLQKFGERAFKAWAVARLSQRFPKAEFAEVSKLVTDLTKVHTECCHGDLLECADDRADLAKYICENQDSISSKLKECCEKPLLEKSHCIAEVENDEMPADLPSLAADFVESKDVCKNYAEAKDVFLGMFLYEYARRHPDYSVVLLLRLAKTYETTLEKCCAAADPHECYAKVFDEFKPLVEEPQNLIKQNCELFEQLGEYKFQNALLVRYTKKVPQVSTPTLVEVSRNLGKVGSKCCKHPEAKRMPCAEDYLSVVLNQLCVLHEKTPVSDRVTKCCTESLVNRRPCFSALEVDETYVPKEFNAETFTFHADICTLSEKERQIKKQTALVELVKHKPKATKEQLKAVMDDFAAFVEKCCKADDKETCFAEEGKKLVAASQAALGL
T1 sequence (P02769 25-607): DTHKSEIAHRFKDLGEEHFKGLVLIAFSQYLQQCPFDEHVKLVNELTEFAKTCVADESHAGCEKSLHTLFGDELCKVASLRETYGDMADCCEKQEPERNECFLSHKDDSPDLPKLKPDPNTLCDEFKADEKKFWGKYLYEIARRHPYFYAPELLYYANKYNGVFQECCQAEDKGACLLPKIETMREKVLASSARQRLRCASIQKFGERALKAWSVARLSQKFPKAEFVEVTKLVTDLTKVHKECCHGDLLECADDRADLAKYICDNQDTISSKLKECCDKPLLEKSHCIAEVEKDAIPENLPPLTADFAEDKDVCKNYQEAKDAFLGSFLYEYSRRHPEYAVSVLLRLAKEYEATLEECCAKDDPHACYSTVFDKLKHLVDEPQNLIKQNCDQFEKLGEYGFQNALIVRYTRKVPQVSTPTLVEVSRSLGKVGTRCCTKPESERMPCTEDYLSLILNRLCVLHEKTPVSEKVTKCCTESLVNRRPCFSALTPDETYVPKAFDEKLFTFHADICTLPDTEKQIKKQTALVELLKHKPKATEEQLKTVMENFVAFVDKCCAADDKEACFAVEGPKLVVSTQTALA

[Ag(mtdztH)(dppe)(NO3)]n [Compound 4]
IC50 [1]: 5 µg/mL
MIC [1]: 50 µg/mL
MIC ([1]; value in parentheses): 45 μΜ
IC50 [1, 11]: 4.6 ± 0.7 µM
IC50 [2]: 4.9 µg/mL
MIC [2]: 30 µg/mL
MIC ([2]; value in parentheses): 27 μΜ
IC50 [2, 11]: 4.5 ± 0.8 µM
IC50 [3]: 11 µg/mL
MIC ([3]; ampicillin reference against E.coli (BL21)): higher than 100 μg/mL
MIC ([3]; value in parentheses): 91 μΜ
IC50 [3, 11]: 15.4 ± 2.4 µM
IC50 [4]: 8 µg/mL
MIC [4]: 50 µg/mL
MIC ([4]; value in parentheses): 45 μΜ
IC50 [4, 11]: 7.3 ± 1.6 µM
IC50 ([5]; cytocidal/cytotoxic): 4.4 ± 0.08 µM
GI50 ([5]; growth inhibition): 1200 ± 50 nM
TGI ([5]; total growth inhibition): 2.8±0.05 μΜ
IC50 ([6]; cytocidal/cytotoxic): 3000 ± 40 nM
GI50 ([6]; growth inhibition): 400 ± 20 nM
TGI ([6]; total growth inhibition): 0.9±0.04 μΜ
LC50 ([7]; cytocidal/cytotoxic, read-out: IC50 (the source's name)): 3.6 ± 0.05 µM
GI50 ([7]; growth inhibition): 600 ± 30 nM
TGI ([7]; total growth inhibition): 1.6±0.03 μΜ
H2O2 reducing ability (%H2O2) [8]: 35.17±1.96%
relative DNA viscosity change (calf-thymus (CT) DNA; higher concentrations, r > 0.15): moderate increase
relative DNA viscosity change (calf-thymus (CT) DNA; low concentrations, up to r = 0.15): remained almost unchanged
decrease in BSA fluorescence ([9]; λex 295 nm, λem 350 nm): 44.5%
emission-quenching constant kq ([9]; τ0 = 10^–8 s): 7.15 (±0.40) × 10^12 M^−1s^−1
binding constant K ([10]; Scatchard equation): 7.21 (±0.53) × 10^4 M^−1
HSA emission quenching ([10]; λex 295 nm, λem 338 nm): 23%
emission-quenching constant kq ([10]; τ0 = 10^–8 s): 5.11 (±0.37) × 10^11 M^−1s^−1

— paper PMC9823356, “Inhibition of Cancer Cell Proliferation and Bacterial Growth by Silver(I) Complexes Bearing a CH3-Substituted Thiadiazole-Based Thioamide” (Molecules, 2023)
